# Experiments:
# Assay in all cases: relative viability (nuclei count vs DMSO), 5 days (fraction); higher = more cells survive
# [1] = test system: 201T
# Procedure, shortened: (§1)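 Relative viability is defined as nuclei in treated wells over nuclei in vehicle wells. Duplicate plates were run and medians reported. Lung cancer cell lines in 1536-well plates were dosed by pin tool one day after seeding, with one drug or with a fixed anchor-drug dose plus five library-drug doses (not always all listed) in √10 steps, and nuclei were counted after 5 days.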
# [2] = test system: A-427
# Procedure, shortened: as §1
# [3] = test system: BEN
# Procedure, shortened: as §1
# [4] = test system: COR-L23
# Procedure, shortened: as §1
# [5] = test system: EKVX
# Procedure, shortened: as §1
# [6] = test system: HARA
# Procedure, shortened: as §1
# [7] = test system: HCC-15
# Procedure, shortened: as §1
# [8] = test system: HCC-44
# Procedure, shortened: as §1
# [9] = test system: HCC-827
# Procedure, shortened: as §1
# [10] = test system: NCI-H1437
# Procedure, shortened: as §1
# [11] = test system: NCI-H1650
# Procedure, shortened: as §1
# [12] = test system: NCI-H1666
# Procedure, shortened: as §1
# [13] = test system: NCI-H1792
# Procedure, shortened: as §1
# [14] = test system: NCI-H1975
# Procedure, shortened: as §1
# [15] = test system: NCI-H2342
# Procedure, shortened: as §1
# [16] = test system: NCI-H23
# Procedure, shortened: as §1
# [17] = test system: NCI-H358
# Procedure, shortened: as §1
# [18] = test system: NCI-H441
# Procedure, shortened: as §1
# [19] = test system: NCI-H596
# Procedure, shortened: as §1
# [20] = test system: NCI-H650
# Procedure, shortened: as §1
# [21] = test system: NCI-H838
# Procedure, shortened: as §1
# [22] = test system: SK-MES-1
# Procedure, shortened: as §1
# [23] = test system: SW 900
# Procedure, shortened: as §1
smiles,measurement,setting,value
O=c1cc(-c2cccc3c2Sc2ccccc2S3)oc(N2CCOCC2)c1 + Nc1ncn([C@H]2C[C@H](O)[C@@H](CO)O2)c(=O)n1 [Decitabine] (partner 2 µM),relative viability,[1]; first compound 0.08 µM,0.855
same,relative viability,[1]; first compound 0.253 µM,0.882
same,relative viability,[1]; first compound 0.8 µM,0.893
same,relative viability,[1]; first compound 2.53 µM,0.816
same,relative viability,[1]; first compound 8 µM,0.744
same,relative viability,[2]; first compound 0.08 µM,0.448
same,relative viability,[2]; first compound 0.253 µM,0.6
same,relative viability,[2]; first compound 0.8 µM,0.547
same,relative viability,[2]; first compound 2.53 µM,0.573
same,relative viability,[2]; first compound 8 µM,0.548
same,relative viability,[3]; first compound 0.08 µM,0.649
same,relative viability,[3]; first compound 0.253 µM,0.699
same,relative viability,[3]; first compound 0.8 µM,0.69
same,relative viability,[3]; first compound 2.53 µM,0.586
same,relative viability,[3]; first compound 8 µM,0.943
same,relative viability,[4]; first compound 0.08 µM,0.429
same,relative viability,[4]; first compound 0.253 µM,0.513
same,relative viability,[4]; first compound 0.8 µM,0.386
same,relative viability,[4]; first compound 2.53 µM,0.508
same,relative viability,[4]; first compound 8 µM,0.588
same,relative viability,[5]; first compound 0.08 µM,0.431
same,relative viability,[5]; first compound 0.253 µM,0.34
same,relative viability,[5]; first compound 0.8 µM,0.371
same,relative viability,[5]; first compound 2.53 µM,0.37
same,relative viability,[5]; first compound 8 µM,0.349
same,relative viability,[6]; first compound 0.08 µM,0.634
same,relative viability,[6]; first compound 0.253 µM,0.52
same,relative viability,[6]; first compound 0.8 µM,0.483
same,relative viability,[6]; first compound 2.53 µM,0.555
same,relative viability,[6]; first compound 8 µM,0.49
same,relative viability,[7]; first compound 0.08 µM,0.677
same,relative viability,[7]; first compound 0.253 µM,0.807
same,relative viability,[7]; first compound 0.8 µM,0.64
same,relative viability,[7]; first compound 2.53 µM,0.589
same,relative viability,[7]; first compound 8 µM,0.579
same,relative viability,[8]; first compound 0.08 µM,0.93
same,relative viability,[8]; first compound 0.253 µM,1.02
same,relative viability,[8]; first compound 0.8 µM,0.968
same,relative viability,[8]; first compound 2.53 µM,0.88
same,relative viability,[8]; first compound 8 µM,0.965
same,relative viability,[9]; first compound 0.08 µM,0.266
same,relative viability,[9]; first compound 0.253 µM,0.341
same,relative viability,[9]; first compound 0.8 µM,0.315
same,relative viability,[9]; first compound 2.53 µM,0.219
same,relative viability,[9]; first compound 8 µM,0.344
same,relative viability,[10]; first compound 0.08 µM,0.573
same,relative viability,[10]; first compound 0.253 µM,0.708
same,relative viability,[10]; first compound 0.8 µM,0.628
same,relative viability,[10]; first compound 2.53 µM,0.524
same,relative viability,[10]; first compound 8 µM,0.578
same,relative viability,[11]; first compound 0.08 µM,0.415
same,relative viability,[11]; first compound 0.253 µM,0.511
same,relative viability,[11]; first compound 0.8 µM,0.416
same,relative viability,[11]; first compound 2.53 µM,0.365
same,relative viability,[11]; first compound 8 µM,0.374
same,relative viability,[12]; first compound 0.08 µM,0.664
same,relative viability,[12]; first compound 0.253 µM,0.799
same,relative viability,[12]; first compound 0.8 µM,0.706
same,relative viability,[12]; first compound 2.53 µM,0.678
same,relative viability,[12]; first compound 8 µM,0.762
same,relative viability,[13]; first compound 0.08 µM,0.531
same,relative viability,[13]; first compound 0.253 µM,0.828
same,relative viability,[13]; first compound 0.8 µM,0.45
same,relative viability,[13]; first compound 2.53 µM,0.723
same,relative viability,[13]; first compound 8 µM,0.575
same,relative viability,[14]; first compound 0.08 µM,0.366
same,relative viability,[14]; first compound 0.253 µM,0.36
same,relative viability,[14]; first compound 0.8 µM,0.348
same,relative viability,[14]; first compound 2.53 µM,0.38
same,relative viability,[14]; first compound 8 µM,0.381
same,relative viability,[15]; first compound 0.08 µM,0.662
same,relative viability,[15]; first compound 0.253 µM,0.794
same,relative viability,[15]; first compound 0.8 µM,0.734
same,relative viability,[15]; first compound 2.53 µM,0.721
same,relative viability,[15]; first compound 8 µM,0.77
same,relative viability,[16]; first compound 0.08 µM,0.274
same,relative viability,[16]; first compound 0.253 µM,0.314
same,relative viability,[16]; first compound 0.8 µM,0.297
same,relative viability,[16]; first compound 2.53 µM,0.264
same,relative viability,[16]; first compound 8 µM,0.293
same,relative viability,[17]; first compound 0.08 µM,0.199
same,relative viability,[17]; first compound 0.253 µM,0.205
same,relative viability,[17]; first compound 0.8 µM,0.2
same,relative viability,[17]; first compound 2.53 µM,0.25
same,relative viability,[17]; first compound 8 µM,0.214
same,relative viability,[18]; first compound 0.08 µM,0.221
same,relative viability,[18]; first compound 0.253 µM,0.232
same,relative viability,[18]; first compound 0.8 µM,0.223
same,relative viability,[18]; first compound 2.53 µM,0.257
same,relative viability,[18]; first compound 8 µM,0.265
same,relative viability,[19]; first compound 0.08 µM,0.833
same,relative viability,[19]; first compound 0.253 µM,0.951
same,relative viability,[19]; first compound 0.8 µM,0.989
same,relative viability,[19]; first compound 2.53 µM,0.997
same,relative viability,[19]; first compound 8 µM,0.996
same,relative viability,[20]; first compound 0.08 µM,0.317
same,relative viability,[20]; first compound 0.253 µM,0.352
same,relative viability,[20]; first compound 0.8 µM,0.513
same,relative viability,[20]; first compound 2.53 µM,0.322
same,relative viability,[20]; first compound 8 µM,0.29
same,relative viability,[21]; first compound 0.08 µM,0.471
same,relative viability,[21]; first compound 0.253 µM,0.519
same,relative viability,[21]; first compound 0.8 µM,0.457
same,relative viability,[21]; first compound 2.53 µM,0.452
same,relative viability,[21]; first compound 8 µM,0.497
same,relative viability,[22]; first compound 0.08 µM,0.337
same,relative viability,[22]; first compound 0.253 µM,0.406
same,relative viability,[22]; first compound 0.8 µM,0.352
same,relative viability,[22]; first compound 2.53 µM,0.458
same,relative viability,[22]; first compound 8 µM,0.375
same,relative viability,[23]; first compound 0.253 µM,0.453
same,relative viability,[23]; first compound 0.8 µM,0.414
same,relative viability,[23]; first compound 2.53 µM,0.428
same,relative viability,[23]; first compound 8 µM,0.433

# Reference: the supplement of paper PMC10307832
